According to ChEMBL document CHEMBL3352125, “Cytotoxic activity of substituted chalcones in terms of molecular electronic properties” (Bioorg Med Chem Lett, 2014):

Legend:
Format in all cases: functional, cell-based
[1] = Cytotoxicity against human HL60 cells by MTT assay; conditions: HL-60
[2] = Cytotoxicity against human NALM6 cells by MTT assay; conditions: NALM-6
[3] = Cytotoxicity against human WM115 cells by MTT assay; conditions: WM-115

SMILES	IC50 [1]	IC50 [2]	IC50 [3]
O=C(/C=C/c1ccccc1)c1cc(O)ccc1O	5.3 µM	5.5 µM	61.3 µM
O=C(/C=C/c1ccc(O)cc1)c1ccccc1O	7.1 µM	40.6 µM	69.1 µM
O=C(/C=C/c1ccccc1Cl)c1ccccc1O	7.7 µM	6.1 µM	7.6 µM
O=C(/C=C/c1ccc(Cl)cc1)c1ccccc1O	8.3 µM	9.3 µM	48.9 µM
COc1ccc(/C=C/C(=O)c2ccccc2O)cc1	48.7 µM	50.2 µM	60.5 µM
O=C(/C=C/c1ccc([N+](=O)[O-])cc1)c1ccccc1O	5.8 µM	6.9 µM	27.6 µM
COc1cc(/C=C/C(=O)c2ccccc2O)cc(OC)c1OC	39.3 µM	31.7 µM	56.4 µM
O=C(/C=C/c1ccc(Br)cc1)c1ccccc1O	7.3 µM	6.8 µM	50 µM
O=C(/C=C/c1ccccc1)c1ccc(O)cc1O [2',4'-DIHYDROXYCHALCONE]	6.3 µM	18 µM	42 µM
O=C(/C=C/c1ccccc1)c1ccccc1O [2'-HYDROXYCHALCONE]	18 µM	37.5 µM	40.8 µM
O=C(/C=C/c1ccccc1)c1ccccc1 [CHALCONE]	55.4 µM	23.9 µM	43.1 µM
O=C1CCOc2ccccc21 [CHROMANONE]	19.1 µM	8.2 µM	53.2 µM
